From ChEMBL document CHEMBL5729609, “Indoleamine-2,3-dioxygenase inhibitor, preparation method therefor and use thereof” (2023)

Target: Indoleamine 2,3-dioxygenase 1 (Homo sapiens, UniProt P14902)
Assay: Inhibitory Activity Assay: IDO1 (His-tag) enzyme(BPS Bioscience), L-tryptophan (Sigma), methylene blue (Sigma), Catalase originated from the liver of cattle (Sigma), L-ascorbic acid (Sigma), glycerol (Sigma), potassium dihydrogen phosphate solution (Sigma), Tween 20 (Sigma), automatic sampling platformLiquid handler (Bravo & Echo), microplate ReaderSpectraMax M5e (Molecular Devices). Test Method of Compounds: The Compounds are Determined by Absorbance Test Method:The tested compounds are dissolved in DMSO to prepare a high concentration of storage solution. The stock solution of reference compound was diluted with DMSO to prepare a 100× solution. In the first column of the working plate, 8 μL above tested compounds and 8 μL 100× reference compound were respectively added as the highest concentration, and then the highest concentrations were subjected to three times dilution to obtain 11 concentrations and prepare 100× solution. 0.5 μL solution was transferred from the above plate to the detection plate. To each well was added 0.5 μL 100× compound solution. For HPE and ZPE control wells, 0.5 μL 100% DMSO was added. 25 μL 2×IDO1 (His-tag) enzyme solution (containing L-ascorbic acid, methylene blue, and catalase) was added to each well. 25 μL reaction solution without IDO1 (His-tag) enzyme was added into HPE control well. The test plate was centrifugated at 1000 rpm for 1 minute to mix well. Then, the test plate was incubated at room temperature for 30 minutes. 25 μL above 2× substrate (L-tryptophan) solution was added to each well. The test plate was centrifugated at 1000 rpm for 1 minute to mix well. The detection plate was placed on ELISA (SpectraMax M5e), the temperature was set at 25° C., and the absorbance (OD value) was measured at 320 nm every 10 minutes till 60 minutes.<p id="p-0313" num="0311">Calculating the increase ratio of absorbance: the slope of the absorbance increase curve from 10 min to 60 min is derived from SpectralMax M5e. […]

Sequence of Indoleamine 2,3-dioxygenase 1 (P14902 whole entry): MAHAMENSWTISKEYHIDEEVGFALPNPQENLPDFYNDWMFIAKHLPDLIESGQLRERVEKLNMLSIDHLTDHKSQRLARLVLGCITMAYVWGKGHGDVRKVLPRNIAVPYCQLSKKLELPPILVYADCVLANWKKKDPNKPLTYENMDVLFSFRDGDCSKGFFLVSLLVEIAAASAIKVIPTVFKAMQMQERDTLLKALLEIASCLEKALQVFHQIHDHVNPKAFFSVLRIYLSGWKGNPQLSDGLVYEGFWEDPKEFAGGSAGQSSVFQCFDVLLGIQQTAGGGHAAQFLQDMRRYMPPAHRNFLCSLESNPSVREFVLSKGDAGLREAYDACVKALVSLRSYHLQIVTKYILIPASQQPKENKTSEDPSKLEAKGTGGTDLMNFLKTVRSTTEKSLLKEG

SMILES	IC50 [nM]
CNS(=O)(=O)CCCNc1nonc1/C(=N/O)Nc1ccc(F)c(Br)c1	49
CCNS(=O)(=O)CCCNc1nonc1C(=NO)Nc1ccc(F)c(Br)c1	172
CC(C)NS(=O)(=O)CCCNc1nonc1/C(=N/O)Nc1ccc(F)c(Br)c1	281
